“And” between values parts separate entries of the source, which are not always exact repeats. Equal entries are not always repeated. Inconclusive results and toxic doses are left out.
Tested on: L1210 leukemia ip in BDF1 mice, survival T/C
Experiment: NCI In Vivo Anticancer Drug Screen. Data for tumor model L1210 Leukemia (intraperitoneal) in B6D2F1 (BDF1) mice
Conditions: endpoint: mean survival time, higher = longer survival
How it was run: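 Each compound was tested against a transplantable tumor grown in mice. The endpoint was survival, with treated animals benchmarked against vehicle controls as a simple ratio.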

[1] = dose: 12.5 mg/kg/injection, schedule: Q01DX009 (ip), vehicle: saline with Tween-80
[2] = dose: 25.0 mg/kg/injection, schedule: Q01DX009 (ip), vehicle: saline with Tween-80
[3] = dose: 50.0 mg/kg/injection, schedule: Q01DX009 (ip), vehicle: saline with Tween-80
[4] = dose: 50.0 mg/kg/injection, schedule: Q01DX009 (ip), vehicle: Klucel (hydroxypropylcellulose) (HPC)
[5] = dose: 50.0 mg/kg/injection, schedule: Q01DX009 (ip), vehicle: saline
[6] = dose: 100.0 mg/kg/injection, schedule: Q01DX001 (ip), vehicle: Klucel (hydroxypropylcellulose) (HPC)
[7] = dose: 200.0 mg/kg/injection, schedule: Q01DX001 (ip), vehicle: Klucel (hydroxypropylcellulose) (HPC)
[8] = dose: 400.0 mg/kg/injection, schedule: Q01DX001 (ip), vehicle: Klucel (hydroxypropylcellulose) (HPC)
[9] = dose: 100.0 mg/kg/injection, schedule: Q04DX003 (ip), vehicle: saline with Tween-80
[10] = dose: 200.0 mg/kg/injection, schedule: Q04DX003 (ip), vehicle: saline with Tween-80
[11] = dose: 400.0 mg/kg/injection, schedule: Q04DX003 (ip), vehicle: saline with Tween-80
[12] = dose: 100.0 mg/kg/injection, schedule: Q04DX003 (ip), vehicle: Klucel (hydroxypropylcellulose) (HPC)
[13] = dose: 200.0 mg/kg/injection, schedule: Q04DX003 (ip), vehicle: Klucel (hydroxypropylcellulose) (HPC)
[14] = dose: 400.0 mg/kg/injection, schedule: Q04DX003 (ip), vehicle: Klucel (hydroxypropylcellulose) (HPC)

CCCCCCC(CCC)CCCCCC
T/C (dose: 100.0 mg/kg/injection, schedule: Q04DX002 (ip), vehicle: saline with Tween-80): 98 % of control | T/C (dose: 200.0 mg/kg/injection, schedule: Q04DX002 (ip), vehicle: saline with Tween-80): 104 % of control | T/C (dose: 400.0 mg/kg/injection, schedule: Q04DX002 (ip), vehicle: saline with Tween-80): 98 % of control

O=C1C=CC(=O)N1CCCCCCCCCCN1C(=O)C=CC1=O
T/C (dose: 1.0 mg/kg/injection, schedule: Q01DX Z (ip), vehicle: methylcellulose (MC)): 94 % of control | T/C (dose: 1.4 mg/kg/injection, schedule: Q01DX Z (ip), vehicle: methylcellulose (MC)): 96 % of control | T/C (dose: 2.2 mg/kg/injection, schedule: Q01DX Z (ip), vehicle: methylcellulose (MC)): 90 % of control

N#CC(c1ccccc1)c1cccnc1 (configuration not stated)
T/C (dose: 100.0 mg/kg/injection, schedule: Q01DX001 (ip), vehicle: carboxymethylcellulose (CMC)): 94 % of control | T/C (dose: 200.0 mg/kg/injection, schedule: Q01DX001 (ip), vehicle: carboxymethylcellulose (CMC)): 92 % of control | T/C (dose: 400.0 mg/kg/injection, schedule: Q01DX001 (ip), vehicle: carboxymethylcellulose (CMC)): 89 % of control

C=C(Br)CSC#N
T/C [1]: 93 % of control | T/C [2]: 102 % of control | T/C [3]: 89 % of control

O=C(O)c1ccc(N=Nc2nc3ccccc3[nH]2)cc1
T/C [4]: 90 % of control | T/C (dose: 100.0 mg/kg/injection, schedule: Q01DX009 (ip), vehicle: Klucel (hydroxypropylcellulose) (HPC)): 93 % of control | T/C (dose: 200.0 mg/kg/injection, schedule: Q01DX009 (ip), vehicle: Klucel (hydroxypropylcellulose) (HPC)): 90 % of control

CCN(C)N=Nc1cccnc1
T/C (dose: 10.0 mg/kg/injection, schedule: Q01DX009 (ip), vehicle: saline): 101 % of control | T/C (dose: 15.0 mg/kg/injection, schedule: Q01DX009 (ip), vehicle: saline): 107 % of control | T/C (dose: 22.0 mg/kg/injection, schedule: Q01DX009 (ip), vehicle: Klucel (hydroxypropylcellulose) (HPC)): 111 % of control | T/C (dose: 22.0 mg/kg/injection, schedule: Q01DX009 (ip), vehicle: saline with Tween-80): 110 % of control | T/C (dose: 22.0 mg/kg/injection, schedule: Q01DX009 (ip), vehicle: saline): 112 % of control | T/C (dose: 33.0 mg/kg/injection, schedule: Q01DX009 (ip), vehicle: Klucel (hydroxypropylcellulose) (HPC)): 108 % of control | T/C (dose: 33.0 mg/kg/injection, schedule: Q01DX009 (ip), vehicle: saline with Tween-80): 122 % of control | T/C (dose: 33.0 mg/kg/injection, schedule: Q01DX009 (ip), vehicle: saline): 152 % of control | T/C [4]: 108 % of control | T/C [5]: 170 % of control | T/C (dose: 75.0 mg/kg/injection, schedule: Q01DX009 (ip), vehicle: Klucel (hydroxypropylcellulose) (HPC)): 150 % of control | T/C (dose: 75.0 mg/kg/injection, schedule: Q01DX009 (ip), vehicle: saline with Tween-80): 122 % of control

O=Cc1ccc(OCc2cccc([N+](=O)[O-])c2)cc1
T/C [6]: 113 % of control | T/C [7]: 100 % of control | T/C [8]: 87 % of control

COc1ccc(Cl)cc1NC(=O)c1ccc(Cl)cc1Cl
T/C (dose: 100.0 mg/kg/injection, schedule: Q01DX009 (ip), vehicle: saline with Tween-80): 96 % of control | T/C [9]: 98 % of control | T/C (dose: 200.0 mg/kg/injection, schedule: Q01DX009 (ip), vehicle: saline with Tween-80): 94 % of control | T/C [10]: 93 % of control | T/C (dose: 400.0 mg/kg/injection, schedule: Q01DX009 (ip), vehicle: saline with Tween-80): 102 % of control | T/C [11]: 97 % of control

COCC/C(COC)=N/N
T/C (dose: 50.0 mg/kg/injection, schedule: Q01DX001 (ip), vehicle: saline): 103 % of control | T/C (dose: 100.0 mg/kg/injection, schedule: Q01DX001 (ip), vehicle: saline): 103 % of control | T/C (dose: 200.0 mg/kg/injection, schedule: Q01DX001 (ip), vehicle: saline): 122 % of control

CCN1CCCN(CC)C1=O
T/C (dose: 100.0 mg/kg/injection, schedule: Q04DX002 (ip), vehicle: Klucel (hydroxypropylcellulose) (HPC)): 96 % of control | T/C (dose: 200.0 mg/kg/injection, schedule: Q04DX002 (ip), vehicle: Klucel (hydroxypropylcellulose) (HPC)): 96 % of control | T/C (dose: 400.0 mg/kg/injection, schedule: Q04DX002 (ip), vehicle: Klucel (hydroxypropylcellulose) (HPC)): 90 % of control

CCSc1ccc2c(c1)N(CCCN1CCN(C)CC1)c1ccccc1S2
T/C (dose: 3.12 mg/kg/injection, schedule: Q01DX009 (ip), vehicle: saline): 110 % of control | T/C (dose: 6.25 mg/kg/injection, schedule: Q01DX009 (ip), vehicle: saline): 107 % of control | T/C (dose: 6.25 mg/kg/injection, schedule: Q04DX003 (ip), vehicle: saline): 93 % of control | T/C (dose: 12.5 mg/kg/injection, schedule: Q01DX009 (ip), vehicle: saline): 100 % of control | T/C (dose: 12.5 mg/kg/injection, schedule: Q04DX003 (ip), vehicle: saline): 100 % of control and 101 % of control | T/C (dose: 25.0 mg/kg/injection, schedule: Q01DX009 (ip), vehicle: saline): 113 % of control | T/C (dose: 25.0 mg/kg/injection, schedule: Q04DX003 (ip), vehicle: saline): 96 % of control and 97 % of control and 103 % of control | T/C [5]: 98 % of control | T/C (dose: 50.0 mg/kg/injection, schedule: Q04DX003 (ip), vehicle: saline): 100 % of control and 110 % of control | T/C (dose: 100.0 mg/kg/injection, schedule: Q04DX003 (ip), vehicle: saline): 114 % of control and 104 % of control and 110 % of control

C=CCOc1ccccc1C(C)=O
T/C [9]: 97 % of control | T/C [10]: 97 % of control | T/C [11]: 89 % of control

OCc1nc2cc3nc(CO)[nH]c3cc2[nH]1
T/C (dose: 75.0 mg/kg/injection, schedule: Q01DX001 (ip), vehicle: carboxymethylcellulose (CMC)): 98 % of control | T/C (dose: 150.0 mg/kg/injection, schedule: Q01DX001 (ip), vehicle: carboxymethylcellulose (CMC)): 101 % of control

C/C(=N/O)c1ccncc1
T/C [12]: 100 % of control | T/C [13]: 95 % of control | T/C [14]: 95 % of control

c1ccc([C@H]2O[C@@H]2c2ccccc2)cc1
T/C [1]: 91 % of control | T/C (dose: 12.5 mg/kg/injection, schedule: Q04DX003 (ip), vehicle: saline with Tween-80): 96 % of control | T/C [2]: 96 % of control | T/C (dose: 25.0 mg/kg/injection, schedule: Q04DX003 (ip), vehicle: saline with Tween-80): 93 % of control | T/C [3]: 94 % of control | T/C (dose: 50.0 mg/kg/injection, schedule: Q04DX003 (ip), vehicle: saline with Tween-80): 96 % of control | T/C [6]: 97 % of control | T/C [12]: 92 % of control | T/C [7]: 101 % of control | T/C [13]: 101 % of control | T/C [8]: 103 % of control | T/C [14]: 97 % of control

C=C(Br)CNC(=O)C(C(F)(F)F)C(F)(F)F
T/C (dose: 12.5 mg/kg/injection, schedule: Q01DX009 (ip), vehicle: Klucel (hydroxypropylcellulose) (HPC)): 95 % of control | T/C (dose: 12.5 mg/kg/injection, schedule: Q04DX003 (ip), vehicle: Klucel (hydroxypropylcellulose) (HPC)): 96 % of control | T/C (dose: 25.0 mg/kg/injection, schedule: Q01DX009 (ip), vehicle: Klucel (hydroxypropylcellulose) (HPC)): 97 % of control | T/C (dose: 25.0 mg/kg/injection, schedule: Q04DX003 (ip), vehicle: Klucel (hydroxypropylcellulose) (HPC)): 98 % of control | T/C [4]: 95 % of control | T/C (dose: 50.0 mg/kg/injection, schedule: Q04DX003 (ip), vehicle: Klucel (hydroxypropylcellulose) (HPC)): 96 % of control

Nc1nc2c(c(=O)[nH]1)N=C(CNc1ccc(C(=O)NC(CCC(=O)O)C(=O)O)cc1)CN2 (configuration not stated)
T/C (dose: 2.0 mg/kg/injection, schedule: Q01DX009 (ip), vehicle: sodium bicarbonate): 109 % of control | T/C (dose: 4.0 mg/kg/injection, schedule: Q01DX009 (ip), vehicle: sodium bicarbonate): 115 % of control | T/C (dose: 8.0 mg/kg/injection, schedule: Q01DX009 (ip), vehicle: sodium bicarbonate): 116 % of control | T/C (dose: 16.0 mg/kg/injection, schedule: Q01DX009 (ip), vehicle: sodium bicarbonate): 115 % of control

CC1C(=O)OC2C1CCC1(C)C=CC(=O)C(C)C21 (configuration not stated)
T/C (dose: 75.0 mg/kg/injection, schedule: Q01DX001 (ip), vehicle: saline): 102 % of control | T/C (dose: 150.0 mg/kg/injection, schedule: Q01DX001 (ip), vehicle: saline): 103 % of control

O=S(=O)(CC1CC2C=CC1C2)c1ccc(Br)cc1 (configuration not stated)
T/C [9]: 108 % of control | T/C [10]: 101 % of control | T/C [11]: 101 % of control
